Measurements reported in US11147820B2, “Methods for treating GI tract disorders” (Neurogastrx, Inc., priority 2012, dated 2021).

Experiments:
[1] = tested on: cardiac action potentials; assay: Canine cardiac action potentials by electrocardiography and telemetry; assay type: in vivo; details: dogs, oral gavage, post-dose period 1-6 hours, vs vehicle
Text: Anesthesia is introduced to dogs. Balanced gaseous anesthesia is used throughout the surgical procedure. Once anesthetized, animals are shaved and surgically scrubbed, encompassing surgical sites of the right inguinal area, chest and right lateral abdomen. Throughout the surgical procedure, animals are monitored for continuous assessment of vital signs. An incision is made along the right medial thigh and the femoral artery exposed by blunt dissection. Another incision is made in the lateral lumbar area cranial to the iliac crest for a tunneling needle to be passed subcutaneously from the incision on the medial thigh to the lumbar incision. A blood pressure catheter is passed through the needle from the lumbar incision and the needle removed. The femoral artery is ligated distally and incised to insert a catheter that is advanced until the tip resided in the femoral artery/abdominal aorta. The catheter is then secured by ligation. The incision in the lumbar area is enlarged and a subcutaneous pocket created in the left dorsal lumbar area to hold the transmitter body. The transmitter (e.g., Data Sciences International, St Paul, Minn., USA) is inserted into the subcutaneous pocket and secured body. Electrocardiography (ECG) leads are positioned. The incision is closed. Postoperative recovery lasts, e.g., about 2 weeks during which supplemental analgesics/antibiotics are administered as needed. Once the postoperative recovery period is complete, the animal is examined for study acceptability by the staff veterinarian and the implanted transmitter signal verified. […] ECGs, heart rate and arterial blood pressure data are recorded 1 hour prior to and then continuously for at least 6 hours following compound and/or vehicle administration. A blood sample for determination of compound plasma concentrations is collected from all subjects at approximately 6 h post-dose. […] Standard ECG intervals (PR, RR, QRS and QT) are automatically measured by the data acquisition system and reported as, e.g., 10 min averages. […] Dose-level averages (and accompanying standard deviation (s.d.) of these baseline-adjusted 10 min averages are calculated across study animals. ANOVA (e.g., repeated measures ANOVA) are applied to these baseline-adjusted averages. Pairwise t-tests are applied within the ANOVA to identify the presence of significant differences of the dose levels relative to vehicle. These t-tests are performed at a 0.05/2=0.025 significance level, so that the overall error rate across the comparisons in a given interval are not higher than 0.05. ECG interval data (reported at 30 min intervals) are analyzed using, e.g., repeated-measures ANOVA techniques similar to the systemic blood pressure and heart rate data described above.

gastric motility = assay: Antral manometry in canines (gastric motility); assay type: in vivo; details: for motor dysfunction: canines
Method: Two healthy female hound dogs (24-28 kg) were involved in this study. Animals were fed an ad libitum chow diet (LabDiet®). After an overnight fast, the dogs were anesthetized with Pentothal (sodium thiopental, 11 mg/kg IV; Abbott Laboratories, North Chicago, Ill.) and maintained on 2-4% isoflurane (Abbott Laboratories) in oxygen (1 L/min) carrier gases delivered from a ventilator after endotracheal intubation. A cannula was placed in the jejunum 20 cm distal to the pylorus for the assessment of antral motility. Dogs were allowed to recover in their individual cages for 2 weeks. All experiments were performed after the dogs were completed recovered from the surgical procedure. The study was performed according to the National Institutes of Health Guidelines on the use of laboratory animals and approved by the Animal Care and Use Committee of the University of Texas Medical Branch at Galveston, Tex. To investigate the effect of the drugs on antral manometry, the study of each drug dose was done on three randomized sessions on separate days following the consumption of one can of solid dog food: 1) a Control session: In which animals received the vehicle only; 2) Dose I session: in which the lower dose of the drug was used; and 3) Dose II session: in which the higher dose of the drug was used (please refer to table for drug doses). Drug administration was performed according to Table 4, below. [table] Antral manometry was performed as follows. Following an overnight fast, an intraluminal water-perfused manometry catheter was inserted into the antrum through the jejunal cannula. Antral manometry recording was initiated after the consumption of one can of solid food and continued for 3 hours. The catheter contained 3 manometric sensors at a 1 cm interval. Dogs were given 10 minutes of accommodation, prior to the start of the recording. For data analysis, motility index (MI), defined as the integrated area (area under curve—AUC) between baseline and contractions per hour, was calculated. For statistical analysis, the Student's t-test was used for assessment of individual differences between groups (High dose, low dose of each drug) compared to control—Microsoft® Excel 2002). All values are expressed as mean±SEM.

gastric emptying = assay: Gastric emptying in rodents, metopimazine; assay type: in vivo; details: preliminary
solid gastric emptying = assay: Solid gastric emptying in rats, S-carbidopa; assay type: in vivo, Sprague-Dawley rats; details: 1 mg/kg, initial results
Method: Male Sprague-Dawley rats, purchased from the Charles River Lab, were housed in the animal facility of Veterans Research Education Foundation, which was maintained at 22˜24° C., 55% relative humidity, with an automatic 12 h light/dark cycle. The animals received a standard laboratory rat chow and tap water ad libitum. The rats were around 400 g at 14 weeks age when used in gastric emptying study.
S-Carbidopa was purchased from Sigma (#: C1335). Stock solution of S-Carbidopa was prepared at 5 mg/ml using DMSO as solvent. 80 μl stock solution was further diluted into 1 ml distilled water to make 0.4 mg/ml. The effect of S-Carbidopa (1 mg/kg) on solid gastric emptying was studied.
Male SD rats were involved in this study. Rats were fasted in cages with metal wired mesh for 24 hours with free access to water; S-carbidopa (1 mg/kg) was administered to the rats by oral gavage. Control rats were not administered S-carbidopa. 15 minutes following administration, rats were given access to 2 g of rat chow pellets for ten minutes. All rats completely ingested the chow within the 10 minute time frame. Rats were sacrificed by sodium pentobarbital (100 mg/kg) overdose 90 min after feeding. […] Solid gastric emptying was calculated according to the following formula: Gastric emptying (%)=[1−(dried gastric content in g)/2 g]×100. All values are expressed as mean±SEM. […]

Row | Structure (SMILES) | peripheral restriction (Peripheral restriction) | QTc intervals [1] | motor dysfunction (gastric motility) | further results
1 | CS(=O)(=O)c1ccc2c(c1)N(CCCN1CCC(C(=O)O)CC1)c1ccccc1S2 [Metopimazine acid] | peripherally restricted agents | no significant increases | – | –
2 | CS(=O)(=O)c1ccc2c(c1)N(CCCN1CCC(C(N)=O)CC1)c1ccccc1S2 [Metopimazine, 1-[3-[2-(methylsulfonyl)-10H-phenothiazin-10-yl]propyl]-piperidine-4-carboxamide] | peripherally restricted agents | no significant increases | no motor dysfunction was observed | increase in gastric emptying as compared to vehicle control (gastric emptying; 3 mg/kg): about 40%; increase in gastric emptying as compared to vehicle control, overall effect (gastric emptying; pooling the 3 mg/kg and 10 mg/kg doses): about 20%
3 | C[C@@](Cc1ccc(O)c(O)c1)(NN)C(=O)O [S-Carbidopa, (2S)-3-(3,4-dihydroxyphenyl)-2-hydrazino-2-methylpropanoic acid] | – | no significant increases | no motor dysfunction was observed | motility index (MI) (gastric motility; 1 mg/kg IV, 15 min prior to meal, all three channels, p=0.05): robustly increased MI; solid gastric emptying compared to control rats (solid gastric emptying): improves solid gastric emptying
4 | CN(CCOc1ccc(NS(C)(=O)=O)cc1)CCc1ccc(NS(C)(=O)=O)cc1 [dofetilide] | – | increased | – | –
5 | Cl.NCCc1ccc(O)c(O)c1 [dopamine hydrochloride] | – | – | – | motility index (MI) (gastric motility; 50 mg/canine IV, immediately before meal, all channels, p=0.06): decreased MI
